Columns and labels:
PTPN2 [1] = target: T1, PTPN2 (Homo sapiens, UniProt P17706); experiment: PTPN2 biochemical assay (PhosphoSens, substrate AQT0264); conditions: PhosphoSens substrate AQT0264 20 μM, room temperature; read-out: PTPN2 BCHEM IC50
T1 sequence (P17706 1-415): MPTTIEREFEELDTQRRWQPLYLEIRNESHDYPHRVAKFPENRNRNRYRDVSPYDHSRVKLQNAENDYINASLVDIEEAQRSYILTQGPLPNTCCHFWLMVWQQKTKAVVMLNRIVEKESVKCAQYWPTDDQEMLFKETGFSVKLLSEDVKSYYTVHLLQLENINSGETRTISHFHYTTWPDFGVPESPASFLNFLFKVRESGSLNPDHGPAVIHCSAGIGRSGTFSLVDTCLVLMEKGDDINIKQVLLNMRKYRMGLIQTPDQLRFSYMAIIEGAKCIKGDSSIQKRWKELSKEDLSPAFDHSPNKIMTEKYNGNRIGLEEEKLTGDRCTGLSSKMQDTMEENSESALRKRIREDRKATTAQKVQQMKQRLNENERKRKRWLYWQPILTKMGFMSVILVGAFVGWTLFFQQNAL
Experimental: A PhosphoSens® kinase assay was performed as described by the vendor (AssayQuant Technologies, Marlborough, MA). Briefly, 1000× solutions of compounds were prepared in DMSO via serial dilution of the 10 mM DMSO stocks using 3-fold intervals in a 384-well reagent plate. 50 nL of the compound dilution series was then added to the corresponding wells of a 384-well assay plate. 40 mL of 1.25× substrate (AQT0264) in 1× assay buffer (50 mM HEPES pH 7.5, 500 μM EGTA, […] MgCl2, 0.01% Brij-35, 1% Glycerol, 1 mM DTT, and 0.2 mg/mL BSA) was transferred to each well of the assay plate to achieve a final substrate concentration of 20 μM. Finally, […] of 5×PTPN2 enzyme stock was added to each well of the assay plate for a final enzyme concentration of […]. Reaction progress curves were collected by sampling fluorescence intensity at the excitation wavelength 360 nm (λex360) and emission wavelength 480 nm (λem480) every 71 seconds for one hour using a Synergy H4 plate reader (BioTek Instruments/Agilent Technologies, Winooski, VT) at room temperature.
(§1) For IC50 data, High DDT concentration and/or DiFMUP substrate assays were used; a skilled artisan may use either assay.

phospho-STAT1 (Tyr701) = experiment: Phospho-STAT1 (Tyr701) HTRF assay in B16-F10 cells; type: cell-based; conditions: mouse IFN-gamma 100 ng/ml, 1 hour, read-out: pSTAT1 HTRF B16 EC50
Experimental: B16-F10 cells (ATCC, Manassas, VA, #CRL-6475) were cultured in DMEM growth medium (ThermoFisher Scientific, Waltham, MA, #11995-040) supplemented with 10% heat inactivated FBS (ThermoFisher Scientific, #16140-071) and 1% pen/strep (ThermoFisher Scientific, #15140-122). The cells were seeded into a white opaque 384-well tissue culture treated microplate (PerkinElmer, Waltham, MA, #6007688) at a density of 10,000 cells/well in 20 uL total volume and incubated overnight at 37 C and 5% CO2. 30 nL of compounds dissolved in DMSO were then transferred from a source plate into target wells with the Echo650 acoustic liquid handler (Beckman Coulter, Indianapolis, IN). Negative control wells received 30 nL of DMSO only (0.15% final concentration). Plates were returned to the incubator for 1 hour and then cells treated with either 5 uL of growth medium or 5 uL of growth medium containing 500 ng/ml of recombinant mouse IFN-gamma protein (R&D Systems, Minneapolis, MN, #485-MI/CF, 100 ng/ml final concentration) using the Assist automated pipetting platform (INTEGRA Biosciences, Hudson, NH). Plates were incubated at 37 C for 1 hour and assayed for phosphorylated STAT1 protein levels with the phospho-STAT1 (Tyr701) HTRF kit (Cisbio, Bedford, MA, #63ADK026PEH) according to manufacturer's instructions. HTRF signal intensity was collected with the En Vision 2105 plate reader (PerkinElmer) 24 hours later and analyzed with the Dotmatics software platform to calculate compound IC50 values.

B16-F10 cells = experiment: Cell proliferation assay (CellTiter-Glo) in B16-F10 cells with IFN-gamma; type: cell-based; conditions: 120 h, mouse IFN-gamma 10 ng/mL, read-out: PTPN2 Prolif 5d B16F10 EC50
Experimental: B16-F10 cells (ATCC, Manassas, VA, #CRL-6475) were cultured in DMEM growth medium (ThermoFisher Scientific, Waltham, MA, #11995-040) supplemented with 10% heat inactivated FBS (ThermoFisher Scientific, #16140-071) and 1% pen/strep (ThermoFisher Scientific, #15140-122). The cells were seeded into two white opaque 384-well tissue culture treated microplates (PerkinElmer, Waltham, MA, #6007688) at a density of 100 cells/well in 20 uL total volume and incubated overnight at 37 C and 5% CO2. 30 nL of compounds dissolved in DMSO were then transferred from a source plate into target wells with the Echo650 acoustic liquid handler (Beckman Coulter, Indianapolis, IN). Negative control wells received 30 nL of DMSO only (0.15% final concentration). Plates were returned to the incubator for 1 hour and then cells treated with either 5 uL of growth medium or 5 uL of growth medium containing 50 ng/ml of recombinant mouse IFN-gamma protein (R&D Systems, Minneapolis, MN, #485-MI/CF, 10 ng/mL final concentration) using the Assist automated pipetting platform (INTEGRA Biosciences, Hudson, NH). Plates were incubated at 37 C for 4 days and cell proliferation assayed with the CellTiter-Glo reagent (Promega, Madison, WI, #G7573, 25 uL per well). […] Off-target compound mediated cytotoxicity was identified by checking for growth inhibition in the absence of IFNg.

PTPN2 [2] = target: T1, PTPN2; experiment: Phosphatase activity assay using DiFMUP as substrate; type: biochemical; set-up: purchased MilliporeSigma SRP5075; conditions: 10 mM DTT, PTPN2 0.15 nM, room temperature, read-out: PTPN2 BCHEM DIFMUP IC50
Experimental: The PTPN2 biochemical assay was performed as follows, a 5× stock solution of human PTPN2 (SRP5075, MilliporeSigma, Burlington, MA) and a 1.25× stock solution of DiFMUP (D6567, ThermoFisher Scientific, Waltham, MA), were prepared in 1× reaction buffer consisting of 50 mM HEPES, pH 7.4, 1 mM EDTA, 150 mM NaCl, 0.2 mg/mL BSA, 100 U/mL catalase and 10 mM DTT. […] of the DiFMUP substrate solution, for a final concentration of […] DiFMUP substrate, was added to a Corning 3574 384-well, white, non-binding surface microtiter plate containing […] of serially diluted test compounds prepared in DMSO. The reactions were started with the addition of […] of the enzyme solution, for a final PTPN2 concentration of 0.15 nM, and monitored every 105 seconds for 60 minutes at λEX 360/λEM 460 in a BioTek Synergy HTX plate reader (Agilent Technologies, Santa Clara, CA) at room temperature. The initial linear portions of the progress curves were fit according to a linear equation to yield the slopes and converted to % inhibition based on a value of 100% activity for the no inhibitor treated control. IC50 values of each compound were obtained by fitting the % inhibition-compound concentration curves using Dotmatics software (Dotmatics, Bishops Stortford, Hertfordshire, England)
as §1

Compound | IC50 (PTPN2 [1]) [nM] | EC50 (phospho-STAT1 (Tyr701)) [nM] | EC50 (B16-F10 cells) [nM] | IC50 (PTPN2 [2]) [nM]
Cc1cc(NCc2cc(O)c(N3CC(=O)NS3(=O)=O)c(F)c2)nc(C)n1 [EXAMPLE 17, 5-[4-[[(2,6-dimethylpyrimidin-4-yl)amino]methyl]-2-fluoro-6-hydroxy-phenyl]-1,1-dioxo-1,2,5-thiadiazolidin-3-one] | 20 | 1880 | 2210 | 50
Cc1ccnc(C)c1NCc1cc(O)c(N2CC(=O)NS2(=O)=O)c(F)c1 [EXAMPLE 3, 5-[4-[[(2,4-dimethyl-3-pyridyl)amino]methyl]-2-fluoro-6-hydroxy-phenyl]-1,1-dioxo-1,2,5-thiadiazolidin-3-one] | 90 | 6160 | 5370 | 60
COc1nc(NCc2cc(O)c(N3CC(=O)NS3(=O)=O)c(F)c2)cnc1C [EXAMPLE 25, 5-[2-fluoro-6-hydroxy-4-[[(6-methoxy-5-methyl-pyrazin-2-yl)amino]methyl]phenyl]-1,1-dioxo-1,2,5-thiadiazolidin-3-one] |  | 3430 | 11300 | 20
Cc1cc(C)nc(NCc2cc(O)c(N3CC(=O)NS3(=O)=O)c(F)c2)n1 [EXAMPLE 29, 5-[4-[[(4,6-dimethylpyrimidin-2-yl)amino]methyl]-2-fluoro-6-hydroxy-phenyl]-1,1-dioxo-1,2,5-thiadiazolidin-3-one] |  | 760 | 4770 | 60
COc1cnc(C)c(NCc2cc(O)c(N3CC(=O)NS3(=O)=O)c(F)c2)n1 [EXAMPLE 21, 5-[2-fluoro-6-hydroxy-4-[[(6-methoxy-3-methyl-pyrazin-2-yl)amino]methyl]phenyl]-1,1-dioxo-1,2,5-thiadiazolidin-3-one] |  | 7860 | 7770 | 20
O=C1CN(c2c(O)cc(CNc3cnccc3-c3ccc(C(F)(F)F)cc3)cc2F)S(=O)(=O)N1 [EXAMPLE 30, 5-[2-fluoro-6-hydroxy-4-[[[4-[4-(trifluoromethyl)phenyl]-3-pyridyl]amino]methyl]phenyl]-1,1-dioxo-1,2,5-thiadiazolidin-3-one] |  | > 15000 | > 15000 | 60

Other lines, results leading:

IC50 (PTPN2 [1]) [nM] | EC50 (phospho-STAT1 (Tyr701)) [nM] | EC50 (B16-F10 cells) [nM] | IC50 (PTPN2 [2]) [nM] | Compound
30 | 490 | 1290 | 210 | N#Cc1cnc(NCc2cc(O)c(N3CC(=O)NS3(=O)=O)c(F)c2)nc1 [EXAMPLE 9, 2-[[3-fluoro-5-hydroxy-4-(1,1,4-trioxo-1,2,5-thiadiazolidin-2-yl)phenyl]methylamino]pyrimidine-5-carbonitrile]
44 | 1850 | 1650 | 11 | N#Cc1cncc(NCc2cc(O)c(N3CC(=O)NS3(=O)=O)c(F)c2)c1 [EXAMPLE 4, 5-[[3-fluoro-5-hydroxy-4-(1,1,4-trioxo-1,2,5-thiadiazolidin-2-yl)phenyl]methylamino]pyridine-3-carbonitrile]
20 | 2670 | 3900 | 220 | O=C1CN(c2c(O)cc(CNc3cncc(Cl)c3)cc2F)S(=O)(=O)N1 [EXAMPLE 8, 5-[4-[[(5-chloro-3-pyridyl)amino]methyl]-2-fluoro-6-hydroxy-phenyl]-1,1-dioxo-1,2,5-thiadiazolidin-3-one]
40 | 2300 | 3130 | 100 | O=C1CN(c2c(O)cc(CNc3cncc(C(F)(F)F)c3)cc2F)S(=O)(=O)N1 [EXAMPLE 7, 5-[2-fluoro-6-hydroxy-4-[[[5-(trifluoromethyl)-3-pyridyl]amino]methyl]phenyl]-1,1-dioxo-1,2,5-thiadiazolidin-3-one]
10 | 14000 | 6000 | 50 | Cc1cc(NCc2cc(O)c(N3CC(=O)NS3(=O)=O)c(F)c2)cc(C)n1 [EXAMPLE 2, 5-[4-[[(2,6-dimethyl-4-pyridyl)amino]methyl]-2-fluoro-6-hydroxy-phenyl]-1,1-dioxo-1,2,5-thiadiazolidin-3-one]
40 | 8600 | 10100 | 30 | Cc1ncc(C)c(NCc2cc(O)c(N3CC(=O)NS3(=O)=O)c(F)c2)n1 [EXAMPLE 27, 5-[4-[[(2,5-dimethylpyrimidin-4-yl)amino]methyl]-2-fluoro-6-hydroxy-phenyl]-1,1-dioxo-1,2,5-thiadiazolidin-3-one]
 | 730 | 1380 | 1 | N#Cc1ncc(NCc2cc(O)c(N3CC(=O)NS3(=O)=O)c(F)c2)cn1 [EXAMPLE 32, 5-((4-(1,1-dioxido-4-oxo-1,2,5-thiadiazolidin-2-yl)-3-fluoro-5-hydroxybenzyl)amino)pyrimidine-2-carbonitrile]
 | 250 | 630 | 20 | Cc1ccc(NCc2cc(O)c(N3CC(=O)NS3(=O)=O)c(F)c2)nn1 [EXAMPLE 28, 5-(2-fluoro-6-hydroxy-4-(((6-methylpyridazin-3-yl)amino)methyl)phenyl)-1,2,5-thiadiazolidin-3-one 1,1-dioxide]
140 | 1770 | 6020 |  | CC(C)c1cnc(NCc2cc(O)c(N3CC(=O)NS3(=O)=O)c(F)c2)nc1 [EXAMPLE 11, 5-[2-fluoro-6-hydroxy-4-[[(5-isopropylpyrimidin-2-yl)amino]methyl]phenyl]-1,1-dioxo-1,2,5-thiadiazolidin-3-one]

— patent publication US20240228476A1, “INHIBITORS OF PROTEIN TYROSINE PHOSPHATASE, COMPOSITIONS, AND METHODS OF USE” (BRISTOL-MYERS SQUIBB COMPANY, priority 2022, published 2024)
